# Source: the supplement of paper PMC10331698
# ± gives the standard deviation of the averaged measurements.
# Legend:
# Assay in all cases: level (log10 ratio to DMSO vehicle control); higher = higher biomarker level / cell amount than vehicle control
# [1] = compound: O=S(=O)(O)CCC(F)(F)C(F)(F)C(F)(F)C(F)(F)C(F)(F)C(F)(F)C(F)(F)C(F)(F)F [8:2 Fluorotelomer sulfonic acid] (in DMSO)
# Procedure: (§1)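 BioMAP Diversity Plus panel of 12 human primary cell co-culture systems (3C, 4H, LPS, SAg, BT, BF4T, BE3C, CASM3C, HDF3CGF, KF3CT, MyoF, Mphg). Compounds were added 1 h before stimulation and left for 24 h (MyoF 48 h; BT 72 h for soluble read-outs or 6 d for IgG). Biomarkers were read by ELISA, cytotoxicity by SRB, PBMC viability and proliferation by Alamar Blue. Each well value was divided by the mean of 8 DMSO control wells on the same plate and log10 transformed; duplicate blinded samples were tested at 4 concentrations.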
# [2] = compound: O=S(=O)(O)C(F)(F)C(F)(F)C(F)(F)C(F)(F)C(F)(F)C(F)(F)C(F)(F)F [Perfluoroheptanesulfonic acid] (in DMSO)
# Procedure: as §1
# [3] = compound: O=C(O)C=C(C(F)(F)F)C(F)(F)F [3,3-Bis(trifluoromethyl)-2-propenoic acid] (in DMSO)
# Procedure: as §1
# Perfluoroundecanoic acid = compound: O=C(O)C(F)(F)C(F)(F)C(F)(F)C(F)(F)C(F)(F)C(F)(F)C(F)(F)C(F)(F)C(F)(F)C(F)(F)F [Perfluoroundecanoic acid] (in DMSO); details: 6700 nM
# Procedure: as §1
# [4] = compound: CCOC(=O)CC(=O)C(F)(F)C(F)(F)F [Ethyl pentafluoropropionyl acetate] (in DMSO)
# Procedure: as §1
# [5] = compound: OCCC(F)(F)C(F)(F)C(F)(F)C(F)(F)F [4:2 Fluorotelomer alcohol] (in DMSO)
# Procedure: as §1
# [6] = compound: OCC(F)(F)OC(F)(F)C(F)(F)OC(F)(F)C(F)(F)OC(F)(F)CO [1H,1H,11H,11H-Perfluorotetraethylene glycol] (in DMSO)
# Procedure: as §1
Test System,level (log10) ([1]; 6700 nM),level (log10) ([1]; 20000 nM),level (log10) ([1]; 60000 nM),level (log10) ([2]; 1500 nM),level (log10) ([2]; 4400 nM),level (log10) ([2]; 13000 nM),level (log10) ([2]; 40000 nM),level (log10) ([3]; 6700 nM),level (log10) ([3]; 20000 nM),level (log10) ([3]; 60000 nM),level (log10) (Perfluoroundecanoic acid),level (log10) ([4]; 6700 nM),level (log10) ([4]; 20000 nM),level (log10) ([4]; 60000 nM),level (log10) ([5]; 6700 nM),level (log10) ([5]; 20000 nM),level (log10) ([5]; 60000 nM),level (log10) ([6]; 6700 nM),level (log10) ([6]; 20000 nM),level (log10) ([6]; 60000 nM)
BE3C:uPA,0.006 ± 0.0071,0.0055 ± 0.0035,-0.002 ± 0.0028,-0.0055 ± 0.023,-0.004 ± 0.034,-0.0235 ± 0.032,-0.018 ± 0.038,-0.0205 ± 0.011,-0.015 ± 0.0099,-0.0045 ± 0.018,0.0255 ± 0.00071,-0.0105 ± 0.013,-0.011 ± 0.013,-0.0195 ± 0.0035,-0.032 ± 0.065,-0.014 ± 0.058,0.014 ± 0.027,-0.0105 ± 0.011,0.0055 ± 0.013,-0.0075 ± 0.0021
CASM3C:CCL2/MCP-1,-0.0095 ± 0.00071,-0.003 ± 0.0057,0.016 ± 0.04,-0.007 ± 0.088,-0.043 ± 0.024,-0.034 ± 0.016,-0.021 ± 0.0028,-0.03 ± 0.0028,-0.0425 ± 0.00071,-0.0465 ± 0.022,0.0065 ± 0.015,-0.001 ± 0.0028,0.003 ± 0.0057,0.009 ± 0.027,-0.023 ± 0.038,-0.0055 ± 0.039,-0.008 ± 0.05,0.0125 ± 0.012,-0.007 ± 0.017,-0.004 ± 0.017
CASM3C:CD87/uPAR,0.025 ± 0.0099,0.022 ± 0.0014,-0.0055 ± 0.016,-0.028 ± 0.042,0.0045 ± 0.049,-0.0165 ± 0.049,-0.0555 ± 0.035,-0.0235 ± 0.023,-0.029 ± 0.031,-0.031 ± 0.023,-0.0285 ± 0.0078,0.0015 ± 0.028,-0.013 ± 0.0057,-0.01 ± 0.017,0.0005 ± 0.023,0.007 ± 0.013,-0.003 ± 0.021,-0.019 ± 0.024,-0.026 ± 0.034,-0.011 ± 0.018
CASM3C:CD106/VCAM-1,0.0015 ± 0.029,-0.0425 ± 0.025,-0.071 ± 0.033,0.0085 ± 0.057,0.0125 ± 0.0035,0.0055 ± 0.05,-0.0355 ± 0.0035,-0.152 ± 0.012,-0.216 ± 0.021,-0.284 ± 0.054,-0.032 ± 0.034,-0.01 ± 0.0085,-0.011 ± 0.0085,-0.01 ± 0.023,0.0435 ± 0.023,-0.0035 ± 0.023,-0.0005 ± 0.042,0.025 ± 0.011,0.017 ± 0.011,0.032 ± 0.0085
CASM3C:CD141/Thrombomodulin,-0.0045 ± 0.029,-0.026 ± 0.04,-0.0265 ± 0.0035,0.019 ± 0.037,-0.019 ± 0.028,-0.0185 ± 0.022,0.038 ± 0.078,0.03 ± 0.0071,0.0275 ± 0.0064,0.026 ± 0.0028,-0.06 ± 0.12,-0.005 ± 0.0071,-0.0005 ± 0.00071,-0.0115 ± 0.018,-0.018 ± 0.075,0.0295 ± 0.035,0.0295 ± 0.043,-0.0135 ± 0.015,-0.009 ± 0.0085,0.035 ± 0.0042
CASM3C:CD142/Tissue Factor,-0.045 ± 0.0042,-0.067 ± 0.027,-0.0195 ± 0.03,-0.0305 ± 0.035,-0.0125 ± 0.019,-0.026 ± 0.024,-0.04 ± 0.068,0.055 ± 0.018,-0.009 ± 0.041,-0.0635 ± 0.06,-0.066 ± 0.041,-0.0235 ± 0.046,-0.008 ± 0.031,0.0035 ± 0.012,-0.014 ± 0.079,-0.028 ± 0.0014,0.0225 ± 0.046,-0.0165 ± 0.032,-0.024 ± 0.013,-0.0125 ± 0.0035
CASM3C:CXCL8/IL-8,0.019 ± 0.018,-0.0065 ± 0.012,0.0035 ± 0.013,0.0015 ± 0.013,-0.005 ± 0.0099,-0.0105 ± 0.005,-0.0005 ± 0.019,-0.0025 ± 0.0021,-0.0045 ± 0.005,0.0125 ± 0.022,0.0005 ± 0.0021,0.0045 ± 0.0035,0,0.0035 ± 0.0078,-0.002 ± 0.0028,0.0035 ± 0.026,0.019 ± 0.031,0.002 ± 0.016,-0.0085 ± 0.016,-0.004 ± 0.011
CASM3C:CXCL9/MIG,-0.03 ± 0.02,-0.032 ± 0.0071,0 ± 0.021,0.012 ± 0.035,-0.008 ± 0.0099,0.0015 ± 0.005,0.037 ± 0.05,-0.059 ± 0.051,-0.0845 ± 0.022,-0.0965 ± 0.087,-0.027 ± 0.0099,-0.018 ± 0.03,-0.0145 ± 0.0064,-0.0035 ± 0.0092,0.008 ± 0.0014,0.0085 ± 0.029,0.0245 ± 0.056,0.0135 ± 0.028,0.0135 ± 0.013,0.0415 ± 0.00071
CASM3C:HLA-DR,0.0155 ± 0.023,-0.009 ± 0.024,-0.015 ± 0.017,-0.011 ± 0.0028,0.009 ± 0.0085,-0.0255 ± 0.028,-0.009 ± 0.031,-0.121 ± 0.0028,-0.167 ± 0.0085,-0.181 ± 0.067,-0.007 ± 0.017,-0.0125 ± 0.0064,-0.0185 ± 0.015,-0.015 ± 0.014,-0.0195 ± 0.049,-0.022 ± 0.028,0.002 ± 0.037,-0.002 ± 0.0099,-0.0115 ± 0.0021,-0.005 ± 0.0085
CASM3C:IL-6,0.0025 ± 0.029,-0.0075 ± 0.0064,-0.0005 ± 0.018,0.021 ± 0.05,-0.029 ± 0.0014,-0.0305 ± 0.026,0.011 ± 0.088,-0.097 ± 0.045,-0.148 ± 0.0071,-0.189 ± 0.026,0.0025 ± 0.0092,-0.022 ± 0.011,-0.021 ± 0.023,0.009 ± 0.057,-0.0195 ± 0.005,-0.023 ± 0.0099,-0.016 ± 0.054,-0.0195 ± 0.021,-0.0305 ± 0.026,-0.013 ± 0.035
CASM3C:LDLR,-0.0005 ± 0.0064,0.0135 ± 0.013,0.0415 ± 0.026,-0.0275 ± 0.0021,-0.0135 ± 0.00071,-0.0215 ± 0.0092,-0.0165 ± 0.011,-0.008 ± 0.011,-0.0175 ± 0.0064,-0.022 ± 0.016,-0.0265 ± 0.016,-0.0125 ± 0.019,-0.002 ± 0.0085,0.0035 ± 0.013,-0.0485 ± 0.026,-0.034 ± 0.011,-0.0455 ± 0.037,-0.019 ± 0.0028,-0.025 ± 0.0042,0.0225 ± 0.022
CASM3C:M-CSF,0.0005 ± 0.015,-0.0115 ± 0.0021,0.037 ± 0.028,-0.0215 ± 0.0021,-0.0305 ± 0.0035,-0.039 ± 0.028,-0.02 ± 0.047,-0.0435 ± 0.0035,-0.044 ± 0.02,-0.068 ± 0.033,0.019 ± 0.0085,-0.0145 ± 0.00071,-0.0175 ± 0.0064,-0.0025 ± 0.028,-0.085 ± 0.027,-0.048 ± 0.0028,0.0105 ± 0.0035,-0.0255 ± 0.026,-0.035 ± 0.02,-0.0345 ± 0.011
CASM3C:PAI-I,-0.0015 ± 0.019,0.012 ± 0.018,0.0095 ± 0.012,0.006 ± 0.0057,0.0075 ± 0.0064,0.009 ± 0.0042,0.008 ± 0.0042,-0.0115 ± 0.012,-0.019 ± 0.0057,-0.0145 ± 0.012,0.005 ± 0.0057,0.002 ± 0.0057,0.0055 ± 0.012,0.007 ± 0.0014,-0.0085 ± 0.011,0.001 ± 0.017,-0.0015 ± 0.021,-0.0035 ± 0.012,0.0005 ± 0.0035,0.007 ± 0.0014
